Positions of bridges follow the written chain, without caps; N, C: chain ends. Non-standard residues stand in square brackets, D forms with d. Chains are numbered I, II in the order given. AEEA = NCCOCCOCC(=O)O
What was measured:
[1] = system: VSV pseudotyped with spike protein from SARS-CoV-2
[2] = system: VSV pseudotyped with spike protein from SARS-CoV-1
[3] = system: VSV pseudotyped with spike protein from WIV-16
[4] = system: spike protein of the SARS-CoV-2 virion; format: binding
[5] = target: full length SARS-CoV-2 Spike (Severe acute respiratory syndrome coronavirus 2, UniProt P0DTC2); format: binding; conditions: 10 µM

| Compound | enrichment in final round (% of total sequences) [4] [%] | ΔTm, melting point change [5] [°C] | other results |
| --- | --- | --- | --- |
| CC[C@H](C)[C@@H]1NC(=O)[C@H](CCC(N)=O)NC(=O)[C@H](CCC(=O)O)NC(=O)[C@H](CCCNC(=N)N)NC(=O)[C@@H]2CCCN2C(=O)[C@H](CCCNC(=N)N)NC(=O)[C@H](CCCNC(=N)N)NC(=O)[C@H](Cc2ccc(O)cc2)NC(=O)CSC[C@@H](C(=O)NCC(N)=O)NC(=O)[C@H](Cc2ccccc2)NC(=O)[C@H](C(C)C)NC(=O)[C@H](Cc2c[nH]c3ccccc23)NC(=O)[C@H](CC(C)C)NC(=O)[C@H](CO)NC(=O)CNC(=O)[C@H]([C@@H](C)CC)NC(=O)[C@H]([C@@H](C)CC)NC1=O [Compound S1b3inL1] | – | – | IC50 (SARS2-S pseudotyped VSV): 0.81 µM; IC50 (whole SARS-CoV-2 virus): 5.2 µM; IC50 [1]: 1.7 µM; IC50 [2]: 2.2 µM; IC50 [3]: 7 µM; IC50 (SARS-CoV-2 pseudoviruses): 1.5 µM |
| CC[C@H](C)[C@@H]1NC(=O)[C@H](C(C)C)NC(=O)[C@H](CC(C)C)NC(=O)[C@H](CCCCN)NC(=O)[C@H](CCCNC(=N)N)NC(=O)[C@@H]2CCCN2C(=O)[C@H](C(C)C)NC(=O)[C@H](CCCNC(=N)N)NC(=O)[C@H](Cc2ccc(O)cc2)NC(=O)CSC[C@@H](C(=O)NCC(N)=O)NC(=O)[C@H](Cc2ccccc2)NC(=O)[C@H](CC(N)=O)NC(=O)[C@H](Cc2c[nH]c3ccccc23)NC(=O)[C@H](C(C)C)NC(=O)[C@H](CO)NC(=O)CNC(=O)[C@H]([C@@H](C)CC)NC1=O [Compound S1b3inL4] | 1.50 | 0 | IC50 (whole SARS-CoV-2 virus): 11.4 µM |
| CC[C@H](C)[C@@H]1NC(=O)[C@H](Cc2ccc(O)cc2)NC(=O)CSC[C@@H](C(=O)NCC(N)=O)NC(=O)[C@H](C(C)C)NC(=O)[C@H](Cc2ccc(O)cc2)NC(=O)[C@H](CCC(N)=O)NC(=O)[C@H](C(C)C)NC(=O)[C@H](Cc2c[nH]cn2)NC(=O)[C@H]([C@@H](C)O)NC(=O)[C@H](CO)NC(=O)[C@H](Cc2ccc(O)cc2)NC(=O)[C@H](CC(C)C)NC(=O)[C@H](CO)NC(=O)[C@H](CC(=O)O)NC(=O)[C@H](Cc2c[nH]cn2)NC(=O)[C@H](Cc2c[nH]c3ccccc23)NC(=O)[C@H](C(C)C)NC1=O [SARS2L1] | – | – | IC50 (SARS2-S pseudotyped VSV): 0.41 µM; IC50 (whole SARS-CoV-2 virus): > 100 µM |
| CFFWYENYYTAITVT [SARS1spikeL3] | 2.90 | – | – |
| I: {CH2CO}-YRRPREQIIIGSLWVFCG[AEEA][AEEA]KG-NH2 / II: {CH2CO}-YRRPREQIIIGSLWVFCG[AEEA][AEEA] (amide I:21-II:C; thioether I:N-I:17, II:N-II:17) [Dimer 2] | – | – | IC50 (SARS-CoV-2 pseudoviruses): 0.05 µM |
| I: {CH2CO}-YRRPREQIIIGSLWVFCG[AEEA][AEEA][AEEA][AEEA]KG-NH2 / II: {CH2CO}-YRRPREQIIIGSLWVFCG[AEEA][AEEA][AEEA][AEEA] (amide I:23-II:C; thioether I:N-I:17, II:N-II:17) [Dimer 1] | – | – | IC50 (SARS-CoV-2 pseudoviruses): 0.03 µM |
| I: {CH2CO}-YRRPREQIIIGSLWVFCG[AEEA][AEEA][AEEA][AEEA][AEEA][AEEA]KG-NH2 / II: {CH2CO}-YRRPREQIIIGSLWVFCG[AEEA][AEEA][AEEA][AEEA][AEEA][AEEA] (amide I:25-II:C; thioether I:N-I:17, II:N-II:17) [Dimer 3] | – | – | IC50 (SARS-CoV-2 pseudoviruses): 0.09 µM |
| I: {CH2CO}-YRRPREQIIIGSLWVFCG[AEEA][AEEA][AEEA][AEEA][AEEA][AEEA][AEEA][AEEA]KG-NH2 / II: {CH2CO}-YRRPREQIIIGSLWVFCG[AEEA][AEEA][AEEA][AEEA][AEEA][AEEA][AEEA][AEEA] (amide I:27-II:C; thioether I:N-I:17, II:N-II:17) [Dimer 4] | – | – | IC50 (SARS-CoV-2 pseudoviruses): 0.01 µM |
| IILYRTYFQPFRWEF [SARS1spikeL2] | 5.58 | – | – |
| IVLHDGLRSATVLWI [SARS2R3L2] | 0.77 | 1.5 | – |
| LIWYQSYYQTEVVWF [SARS1spikeL1] | 8.32 | – | – |
| LVFHDNVYTVTVVHV [SARS2R3L1] | 0.71 | 1 | – |
| NARILQRWFPELAHL [SARS2D1] | 11.88 | 0 | – |
| SIENYLKKLGYVLLW [SARS2D4] | 5.53 | −0.5 | – |
| SVVFSADGRHYYWDS [SARS2L3] | 1.25 | 0 | – |
| TSQICQELDALGDWI [SARS1spikeD2] | 7.71 | – | – |
| VIWHPDRWTSVVLQI [SARS2L2] | 17.02 | 2 | – |

From patent publication US20260242415A1 (priority 2022, published 2026)
